Assay: Phase I safety and tolerability: DLTs, MTD, adverse events
Type: in vivo, human
[1] = All patients in study (n=120), G3
[2] = All patients in study (n=120), ≤G2
[3] = All patients in study (n=120), ≥G4

For `Cc1c(CN2CCN(C(=O)[C@H](C)O)CC2)sc2c(N3CCOCC3)nc(-c3cnc(N)nc3)nc12` [apitolisib], the “Hyperglycemia, treatment related AE, n (%)” value (“Hyperglycemia … (%)” below) (40mg 28/28d (n=51), ≥G4) was 0, the “Liver dysfunction (abnormal LFTs), treatment related AE, n (%)” value (“Liver dysfunction (abnormal LFTs) … (%)” for short) (40mg 28/28d (n=51), ≥G4) was 0 and the “Mucosal inflammation, treatment related AE, n (%)” value (from here on “Mucosal inflammation … (%)”) (40mg 28/28d (n=51), ≥G4) was 0. The “Nausea, treatment related AE, n (%)” value (40mg 28/28d (n=51), ≥G4) was 0, the “Patients with any AE related to apitolisib, n (%)” value (“Patients with any AE related … (%)” for short) (40mg 28/28d (n=51), ≥G4) was 5 (10%) and the “Pneumonitis, treatment related AE, n (%)” value (40mg 28/28d (n=51), ≥G4) was 2 (4%). The “Pruritus, treatment related AE, n (%)” value (40mg 28/28d (n=51), ≥G4) was 0, the “Rash (maculopapular, pruritic, macular, erythematous, generalized), treatment related AE, n (%)” value (“Rash … (%)” for short) (40mg 28/28d (n=51), ≥G4) was 0 and the “Vomiting, treatment related AE, n (%)” value (40mg 28/28d (n=51), ≥G4) was 0. For the same molecule, the “DLTs, Description” value (70 mg 21/28 d, stage 1) was “G3 maculopapular rash and G3 fasting hyperglycemia”, the “treatment related deaths on study” value (1 at 50 mg QD 21/28, 3 at 40 mg QD 28/28) was 4 and the “patients requiring treatment discontinuation for rash” value (4 patients in stage 2 (2 at 40 mg and 2 at 30 mg QD)) was 5.1%. For the same molecule, the “DLTs, Description” value (All doses, stage 1) was “Hyperglycemia (n=2) Rash”, the “Decreased appetite, treatment related AE, n (%)” value (shortened to “Decreased appetite … (%)”) [1] was 0 and the “Diarrhea, treatment related AE, n (%)” value [1] was 11 (9%). For the same molecule, the “Dry skin, treatment related AE, n (%)” value [1] was 1 (1%), the “Fatigue, treatment related AE, n (%)” value [1] was 7 (6%) and the “Hyperglycemia … (%)” value [1] was 18 (15%). The “Liver dysfunction (abnormal LFTs) … (%)” value [1] was 9 (8%), the “Mucosal inflammation … (%)” value [1] was 4 (3%) and the “Nausea, treatment related AE, n (%)” value [1] was 2 (2%). For the same molecule, the “Patients with any AE related … (%)” value [1] was 51 (42%), the “Pneumonitis, treatment related AE, n (%)” value [1] was 4 (3%) and the “Pruritus, treatment related AE, n (%)” value [1] was 1 (1%). For the same molecule, the “Rash … (%)” value [1] was 14 (12%), the “Vomiting, treatment related AE, n (%)” value [1] was 1 (1%) and the “Decreased appetite … (%)” value [2] was 42 (35%). For the same molecule, the “Diarrhea, treatment related AE, n (%)” value [2] was 60 (50%), the “Dry skin, treatment related AE, n (%)” value [2] was 16 (13%) and the “Fatigue, treatment related AE, n (%)” value [2] was 73 (61%). For the same molecule, the “Hyperglycemia … (%)” value [2] was 9 (8%), the “Liver dysfunction (abnormal LFTs) … (%)” value [2] was 4 (3%) and the “Mucosal inflammation … (%)” value [2] was 27 (23%). For the same molecule, the “Nausea, treatment related AE, n (%)” value [2] was 48 (40%), the “Patients with any AE related … (%)” value [2] was 60 (50%) and the “Pneumonitis, treatment related AE, n (%)” value [2] was 8 (7%). For the same molecule, the “Pruritus, treatment related AE, n (%)” value [2] was 22 (18%), the “Rash … (%)” value [2] was 47 (39%) and the “Vomiting, treatment related AE, n (%)” value [2] was 24 (20%). The “Decreased appetite … (%)” value [3] was 0, the “Diarrhea, treatment related AE, n (%)” value [3] was 0 and the “Dry skin, treatment related AE, n (%)” value [3] was 0. For the same molecule, the “Fatigue, treatment related AE, n (%)” value [3] was 0, the “Hyperglycemia … (%)” value [3] was 2 (2%) and the “Liver dysfunction (abnormal LFTs) … (%)” value [3] was 0. For the same molecule, the “Mucosal inflammation … (%)” value [3] was 0, the “Nausea, treatment related AE, n (%)” value [3] was 0 and the “Patients with any AE related … (%)” value [3] was 8 (7%). The “Pneumonitis, treatment related AE, n (%)” value [3] was 2 (2%), the “Pruritus, treatment related AE, n (%)” value [3] was 0 and the “Rash … (%)” value [3] was 0. For the same molecule, the “Vomiting, treatment related AE, n (%)” value [3] was 0, the “maximum tolerated dose (MTD)” value (QD, 21/28-day schedule, DLT <33.3%) was 50 mg and the “recommended phase 2 dose (RP2D)” value (QD, 28/28-day schedule, except MPM patients) was 40 mg. For the same molecule, the “recommended dose for MPM” value (QD, 28/28 schedule, malignant pleural mesothelioma patients) was 30 mg, the “maximum administered dose (MAD)” value (QD, continuous 28/28 schedule) was 50 mg and the “diarrhea, treatment related ≥G3” value (RP2D 40 mg QD) was 10%. For the same molecule, the “fatigue, treatment related ≥G3” value (RP2D 40 mg QD) was 4%, the “hyperglycemia, treatment related ≥G3” value (RP2D 40 mg QD) was 18% and the “liver dysfunction, treatment related ≥G3” value (RP2D 40 mg QD) was 12%. The “mucosal inflammation, treatment related ≥G3” value (RP2D 40 mg QD) was 6%, the “pneumonitis, treatment related ≥G3” value (RP2D 40 mg QD) was 8% and the “rash, treatment related ≥G3” value (RP2D 40 mg QD) was 14%. The “pneumonitis cases reported on study” value (all patients, six severe) was 14, the MTD (continuous 28/28 schedule) was “not reached” and the “dose reductions due to diarrhea” value (human, in vivo, oral) was 2 n. The “dose reductions due to mucosal inflammation” value (human, in vivo, oral) was 2 n, the “dose reductions due to pneumonitis” value (human, in vivo, oral) was 2 n and the “rate of severe pneumonitis (grade ≥3)” value (in vivo) was 8%. For the same molecule, the “patients with pneumonitis outside the DLT window” value (stage 1, including 3 severe cases) was 8 patients.
